Experimental data as given in US20250268980A1, “AN ANTICANCER THERAPY TARGETING RAS AND OTHER ONCOGENIC SIGNALS BY INHIBITION OF DYNAMIC BLEBBING AND/OR SEPTINS” (THE BOARD OF REGENTS OF THE UNIVERSITY OF TEXAS SYSTEM, priority 2022, published 2025).

Assays:
NRAS = assay: NRAS-GFP enrichment at the cortex of MV3 cells; assay type: cell-based, human; conditions: voxels within 0.96 μm of surface
Description: 3D Cell Image Analysis. Cell morphology and septin localization were analyzed principally via u-shape3D similar to the protocol described in Driscoll et al. Nature Methods. 16, 1037-1044 (2019), the disclosure of which is incorporated herein in its entirety. Briefly, 3D images were first deconvolved using either a Richardson-Lucy or Wiener algorithm with an experimentally measured point spread function. Cells were next segmented from the image background using u-shape3D's ‘twoLevel’ mode, which combines a straightforward Otsu threshold of the image to detect the outer cell surface with a blurred version of the image to segment the inside of the cell. The volume segmented from the blurred image was morphologically eroded to ensure the fidelity of the overall segmentation. Cell surfaces were then represented as triangle meshes, and the mean surface curvature at every triangle was calculated according to methods described in Driscoll et al. Nature Methods. 16, 1037-1044 (2019) and Elliott et al., Nat. […] Septin and NRAS localization was measured from fluorescence images by extending a sphere of either 1 μm (for septins) or 2 μm (for NRAS) about each mesh triangle and mapping to the triangle the average intensity both within that sphere and the cell. Image intensity was not depth normalized prior to analysis, but was instead measured from the raw, undeconvolved image. […]

[1] = system: septin structures in MV3 melanoma xenografts; assay: Septin foci at invasive front of MV3 SEPT6-GFP xenograft tumors (ctASLM); assay type: in vivo, NOD SCID mice; conditions: mice with MV3 SEPT6-GFP tumors, FCF via oral gavage
Excerpt: NOD SCID mice were flank-injected with SEPT6-GFP-expressing MV3 melanoma cells to form xenograft tumors. Once tumors were palpable at injection sites they were dissected out with surrounding stroma, fixed, cleared, and imaged via cleared tissue axially-scanned lightsheet microscopy (ctASLM) to observe and quantify bleb formation and septin structure formation. As shown in FIG. 18A and FIG. 18B these in vivo experiments recapitulated in vitro results described previously, showing blebby morphologies with associated punctate septin structures (FIG. 18A). Importantly, this phenotype was exclusively observed at the invasive front of tumors, where cells lose contact to surrounding tissue, and not in the densely packed tumor core (FIG. 18B). These findings agree with previous research showing that blebby amoeboid-like cells are enriched at tumor invasive fronts. […] Furthermore, they support the idea that such bleb-associated septin signaling hubs are relevant in disease progression in human patients.
Specifically, FIG. 20A and FIG. 20B depict graphs illustrating the feasibility of anti-septin therapy in vivo. In triplicate experiments, mice growing tumors formed with SEPT6-GFP expressing MV3 melanoma cells (using the methods described in Example 8 above) were treated with FCF via oral gavage and septin structures were analyzed. […]

For `O=C(Nc1ccccc1)Nc1ccnc(Cl)c1` [FCF, forchlorfenuron], the “enrichment of NRAS near the cell surface” value (NRAS) was “significantly reduced enrichment of NRAS near the cell surface”, the “intensity of septin foci at the invasive front” value [1] was “dimmer” and the “number of septin foci at the invasive front” value [1] was “significantly fewer”.
